Entries after “also recorded” stand apart in the source; their conditions may differ.

The target of one data set is T1, PD-1 binding to PD-L1 (Homo sapiens, UniProt Q9NZQ7).
T1 construct: purchased
The data set is described as follows: PD-1:PD-L1 inhibitor screening ELISA. To be noted: FIG. 8. The procedure:
PIC1 peptides were allowed to bind to immobilized PD-L1 on the surface of the plate. Biotinylated PD-1 was then added and bound PD-1 detected by streptavidin-HRP reagent followed by TMB as the substrate for the colorimetric assay.
This inhibitor screening ELISA pair was designed to facilitate the identification and characterization of new PD-1 pathway inhibitors. In this assay, biotinylated human PD-1 was bound to immobilized human PD-L1 and a colorimetric sandwich ELISA platform was used. Plates were coated with human PD-L1 followed by incubation with various PIC1 peptides. Human PD-1-Biotin was then allowed to bind the coated human PD-L1 followed by addition of streptavidin-HRP. TMB was then added as the colorimetric HRP substrate and the wells of the plate analyzed in a plate reader at an absorbance of 450 nm.
The immune checkpoint pathway is an area of significant interest in cancer research. PD-1 is one of the best characterized checkpoint proteins. The binding between PD-1 and its ligand PD-L1 suppresses T-cell activation and allows cancer cells to escape from body's immune surveillance. Therefore, the pharmaceutical inhibition of PD-1 or its ligand has been considered a promising strategy by many cancer researchers. To ascertain if these PIC1 derivatives could inhibit PD-1 interaction with PD-L1, a commercial ELISA kit was utilized. […]

For data set [1] the following is noted: without PEGylation; as described in U.S. Pat. No. 10,005,818; cited from earlier work.
The target of the next data set is T2, CTLA-4 (Homo sapiens, UniProt P16410).
T2 sequence (P16410 36-223): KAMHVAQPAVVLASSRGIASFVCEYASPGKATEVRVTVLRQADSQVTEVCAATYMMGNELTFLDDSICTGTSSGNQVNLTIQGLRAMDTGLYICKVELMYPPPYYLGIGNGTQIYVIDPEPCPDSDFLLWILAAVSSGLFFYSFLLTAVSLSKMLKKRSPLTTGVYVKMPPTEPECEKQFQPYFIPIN
Kind of data set: CTLA-4 Blockade Bioassay (Promega). The class given is cell-based. The arrangement: host or cells: Jurkat T cells (CTLA-4 effector cells) co-cultured with aAPC/Raji cells. To be noted: increasing concentrations. As for the experimental part: CTLA-4 effector cells were incubated with aAPC/Raji Cells in the absence or presence of increasing concentrations of anti-CTLA-4 antibody (positive control), RLS-0122, RLS-0150, RLS-0154, RLS-0164 and RLS-0168 and RLS-0088 (negative control). Luminescence was detected in luminometer plate reader. The drop-off in signal with the test peptides at high concentrations is due to cell death as a result of peptide buffer effects on the cells.
To assess if PIC1 peptides could block CTLA-4 inhibitory activity in a cell-based assay, select peptides were screened in the CTLA-4 Blockade Bioassay (Promega). This bioluminescent cell-based assay can be used to measure the potency and stability of molecules targeting CTLA-4 and consists of two genetically engineered cell lines: CTLA-4 effector cells: Jurkat T cells expressing human CTLA-4 and a luciferase reporter driven by a native promoter which responds to TCR/CD28 activation and aAPC/Raji Cells: Raji cells expressing an engineered cell surface protein designed to activate cognate TCRs in an antigen-independent manner and endogenously expressing CTLA-4 ligands CD80 and CD86. When the two cell types are co-cultured, CTLA-4 competes with CD28 for their shared ligands, CD80 and CD86 and thus inhibits CD28 pathway activation and promoter-mediated luminescence. Addition of a molecule that blocks the interaction of CTLA-4 with its ligands CD80 and CD86 results in promoter-mediated luminescence.

Data set [2] deals with T3, VEGF (Homo sapiens, UniProt P15692).
T3 construct: Promega (bioassay)
T3 sequence (P15692 27-191 isoform P15692-4): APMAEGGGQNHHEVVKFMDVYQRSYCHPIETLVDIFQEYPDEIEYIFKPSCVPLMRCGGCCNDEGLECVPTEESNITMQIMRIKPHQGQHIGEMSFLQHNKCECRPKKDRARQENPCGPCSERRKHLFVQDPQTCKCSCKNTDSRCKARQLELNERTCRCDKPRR
The data set is described as follows: VEGF Bioassay (Promega), VEGF signaling via VEGFR-2 (KDR). The class given is cell-based. An excerpt:
Luminescence was detected in luminometer plate reader.
(§1) Angiogenesis, or the formation of new blood vessels from the established vasculature, is an essential element in tumor growth and metastasis formation. Inhibiting tumor angiogenesis is considered a major therapeutic strategy in oncology. […] The bioluminescent signal is detected in a luminometer.

The subject of data set [3] is purified human Pan T-cells. The data set is described as follows: T-cell exhaustion protocol (repeated CD3/CD28 Dynabead stimulation). The conditions noted are these: ELISA; for Caspase 3/7 levels, in words: peptides 2 mg/ml at each stimulation, day 8; for IFN-gamma levels in cell supernatants, in words / IL-2 levels in cell supernatants, in words: peptides 2 mg/ml, stimulation 2. The class given is cell-based. The procedure:
Purified human pan-T-cells were subject to stimulation with Dynabeads every 48 hours over the period of 8 days with cells also receiving PIC1 peptides (2 mg/ml) at each stimulation. Cells not receiving Dynabeads were run in parallel to assess background levels of Caspase 3/7 signal. At the eighth day, cells were harvested, and the levels of Caspase 3/7 determined by ELISA.
Purified human pan-T-cells were subject to stimulation with Dynabeads every 48 hours over the period of 8 days with cells also receiving PIC1 peptides (2 mg/ml) at each stimulation. Cell supernatants were collected at each stimulation and levels of IL-2 and IFN-gamma assayed by ELISA.
T-cell exhaustion is a form of T-cell dysfunction that occurs in cancer. It is generally defined by poor effector function, reduction in cytokine release (e.g., IL-2, TNF-alpha, IFN-gamma), sustained expression of inhibitory receptors (e.g., PD-1, LAG-3, CD244, CD160) with the progressive loss of effector function due to overstimulation. Exhaustion can prevent optimal control of tumor growth. Exhausted T cells are prevalent in the tumor microenvironment (TME) and can lead to T-cell apoptosis. T-cell exhaustion is reversible and pharmaceutical inhibition of T-cell exhaustion has been considered a promising strategy by many cancer researchers. To ascertain if PIC1 peptides could reverse T-cell exhaustion and increase T cell viability and effector function, a T-cell exhaustion protocol was developed. To induce T-cell exhaustion, purified human Pan T-cells were stimulated with T-Activator CD3/CD28 Dynabeads and cells were washed and re-stimulated every 48 hours. PIC1 peptides were added to the cells after each stimulation with Dynabeads. After three to four stimulations, cells were harvested for readouts which consisted of assessing T-cell apoptosis by measuring Caspase 3/7 levels and production of cytokines IL-2 and IFN-gamma, which are indicative of T-cell functionality. […] To further evaluate if PIC1 peptides could restore T-cell functionality in cells that have undergone the exhaustion protocol, the inventors next assessed production of cytokines IL-2 and IFN-gamma. Supernatants from the cells after each stimulation was collected and the cytokines measured by ELISA. […] The lower level of IFN-gamma signal was consistently seen in this assay.
For orientation: An ELISA detects its analyte on a solid surface through an enzyme-linked reagent.

The next data set has as its system HUVECs. Kind of data set: LPS-induced non-VEGF mediated angiogenesis (tube formation) in HUVECs. The class given is cell-based, human. To be noted: peptides 10 mg/ml; LPS 10 ug/ml; overnight. The procedure: HUVEC cells were incubated with either RLS-0122, RLS-0150, RLS-0154, RLS-0164 and RLS-0168 followed by LPS addition and plating onto extracellular matrix. After overnight incubation, evidence of angiogenesis was determined by fluorescence microscopy. Cells receiving LPS and not receiving LPS served as positive and negative controls for angiogenesis.
Currently there are no drugs on the market to inhibit non-VEGF mediated angiogenesis. To assess whether the PIC1 peptides could inhibit non-VEGF mediated angiogenesis, the inventors developed a model of angiogenesis using human umbilical endothelial vein cells (HUVECs) in which addition of lipopolysaccharide (LPS) induces angiogenesis. HUVECs were first incubated with Cell Trace Violet dye, followed by addition of PIC1 peptides (10 mg/ml) for 1 hour at 37° C. and then treated with 10 ug/ml of LPS and placement on an extracellular matrix to promote angiogenesis. Cells were incubated overnight at 37° C. in a humidified CO2 incubator. Cells were then visualized for tube formation indicative of angiogenesis by fluorescence microscopy.

Data set [4] can be described thus: Total Antioxidant Capacity (TAC) assay. The conditions noted are these: highest peptide concentration 1.5 mM; compared to parent peptide. The procedure:
As previously reported, the TAC (Total Antioxidant Capacity) Assay (Cell Biolabs, Inc, San Diego, CA) was used to measure the antioxidant capacity of the PIC1 variants based on the reduction of copper (II) to copper (I). The kit protocol was performed per the manufacturer's recommendations.
The antioxidant properties for the PIC1 variants were evaluated in a Total Antioxidant Capacity (TAC) assay, as previously reported. Total antioxidant activity over a range of peptide concentrations were determined for the stapled and the D-amino acid peptides based on the PA-I8Sar and PA-C9Sar backbones (FIG. 4A-4B), with the activity of the highest peptide concentration reported (1.5 mM) (FIG. 5A-5C).

Data set [5] deals with T3, VEGF. Kind of data set: VEGF binding ELISA plate-based assay. To be noted: peptides 1 mg/ml. The procedure: A fixed amount of PIC1 peptides (1 mg/ml) were added to the plates followed by a rabbit polyclonal antibody that recognizes the peptides and then a secondary anti-rabbit antibody conjugated with HRP. The plate was then developed by addition of TMB as the substrate for the colorimetric assay.
as §1

T1 sequence (Q9NZQ7 19-238 limits assumed): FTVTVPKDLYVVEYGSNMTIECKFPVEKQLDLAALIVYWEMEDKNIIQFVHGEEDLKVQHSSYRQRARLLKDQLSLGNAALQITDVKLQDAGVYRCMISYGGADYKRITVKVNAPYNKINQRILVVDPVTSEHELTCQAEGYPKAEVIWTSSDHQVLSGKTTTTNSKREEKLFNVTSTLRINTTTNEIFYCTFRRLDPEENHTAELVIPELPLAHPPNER

Turning to “IALILEP(Sar)CCQERAA (IALILEPXCCQERAA; sarcosine at position 8; MOD_RES (8)..(8) Sarcosine) [PA-0088, parent peptide, sarcosine at position 8 of PIC1]”, the “inhibition of binding of PD-1 to PD-L1, in words” value in the data set with PD-1 binding to PD-L1 was “did not inhibit”. The solubility in water result in data set [1] is listed as “water soluble without PEGylation”. Further, the “inhibition of CTLA-4 mediated cell signaling (increase in luminescence), in words” value with CTLA-4 was “no inhibitory over background”.

As to “IALILEPI(Sar)CQERdAA (IALILEPIXCQERAA; D-Ala; sarcosine; MOD_RES (9)..(9) Sarcosine; MOD_RES (14)..(14) D-amino acid) [PA-0168]”, the “inhibition of VEGF signaling via VEGFR-2 (luminescence), in words” value in the data set with VEGF [2] is “did not inhibit signaling”. In data set [3] (listed as RLS-0168), the “Caspase 3/7 levels, in words” value is given as “very low to undetectable levels; also recorded: reduced levels”; the “IFN-gamma levels in cell supernatants, in words” value is “detectable at stimulation 2; also recorded: increased levels”; the “IL-2 levels in cell supernatants, in words” value is “detectable IL-2 at stimulation 2; also recorded: increased levels”. Besides, the “tube formation / angiogenesis inhibition, in words” value with HUVECs is reported as “no detectable tube formation”. In addition, in the data set with CTLA-4 (listed as RLS-0168), the “inhibition of CTLA-4 mediated cell signaling (increase in luminescence), in words” value is recorded as “showed inhibitory activity; also recorded: able to inhibit CTLA-4 mediated cell signaling”.

As to “IALILEPI(Sar)dCQERAA (IALILEPIXCQERAA; D-Cys; sarcosine; MOD_RES (9)..(9) Sarcosine; MOD_RES (10)..(10) D-amino acid) [PA-0164]”, in data set [4], the “total antioxidant capacity, in words” value is “enhanced activity”. For the same substance, in the data set with VEGF [2], the “inhibition of VEGF signaling via VEGFR-2 (luminescence), in words” value was “did not inhibit signaling”. In addition, in data set [3] (listed as RLS-0164), the “Caspase 3/7 levels, in words” value is “decreased levels; also recorded: reduced levels”; the “IFN-gamma levels in cell supernatants, in words” value is “showed IL-2 and IFN-gamma signal at stimulation 2; also recorded: increased levels”; the “IL-2 levels in cell supernatants, in words” value was “showed IL-2 and IFN-gamma signal at stimulation 2; also recorded: increased levels”. Also, in the data set with HUVECs, the “tube formation / angiogenesis inhibition, in words” value was “no detectable tube formation”. Besides, the “inhibition of CTLA-4 mediated cell signaling (increase in luminescence), in words” value with CTLA-4 (listed as RLS-0164) is given as “showed inhibitory activity; also recorded: able to inhibit CTLA-4 mediated cell signaling”. The “binding to VEGF, in words” value in the data set with VEGF [5] is recorded as “binding with high affinity”.

Source of the values: patent publication US20230303623A1, “PEPTIDES AND METHODS OF USE” (REALTA LIFE SCIENCES, INC., priority 2020, published 2023).
